Source: patent publication US20250248391A1, “VIABLE VITREOUS GRAFTS FOR PRESERVATION AND RECOVER OF TISSUE FOR TRANSPLANT AND CLINICAL USE” (Clemson University Research Foundation, priority 2024, published 2025)
Where two headings read alike, the source gives them in different places.

Experiments:
[1] = 6.5M, porcine articular cartilage, ref [5], cited from earlier work
[2] = 1.4M, tissue-engineered collagen scaffold, 20° C.; ref [7]; cited from earlier work
[3] = human articular cartilage, ref [6], cited from earlier work
[4] = test system: whole TMJ discs; experiment: Fluorescence live/dead viability of whole TMJ discs; format: cell-based, Yorkshire pigs; details: for Viability (%): Slow-frozen (Me2SO 10% v/v)
Protocol: (§1) Tissue viability was assessed by fluorescence live/dead staining. Each cylindrical specimen was longitudinally divided into two sections for imaging along the sagittal plane. To comprehensively assess the whole meniscus, both transverse and sagittal sections were prepared. In the case of transverse sections, a 300 μm thick slice of the whole meniscus was obtained using a vibrating blade microtome due to its larger surface area. For sagittal sections, approximately 1-2 mm thick slices were manually cut from corresponding regions. For the TMJ disc samples, strips measuring 6 mm in width, encompassing the anterior, central, posterior, medial, and lateral regions, were manually excised from the whole disc using a scalpel. All cut meniscal slices were immersed in DMEM with 1% P/S culture medium with 4 μM calcein AM and 2 μM ethidium homodimer-1 at room temperature for 2 hours before imaging. In contrast, the TMJ slices underwent staining with distinct dye concentrations: 2 µM calcein AM and 4 μM ethidium homodimer-1, following the same set of conditions. The green-fluorescent calcein indicates living cells by intracellular esterase activity, while the red-fluorescent ethidium homodimer-1 indicates dead cells by loss of plasma membrane integrity. All images were captured using an inverted multiphoton laser scanning microscope. The excitation wavelength was set as 800 nm. Green fluorescence was collected within the 495-540 nm range, and red fluorescence was collected in the 575-630 nm range. Images were taken at a depth of 60 μm below the tissue surface. The whole transverse section images of the whole menisci and the whole sagittal section images of the TMJ disc strips were captured using a 4× objective magnification and stitched together. An interesting view of each region was imaged using a higher objective magnification of 10×. All sagittal section images for meniscal specimens, three primary regions of whole menisci, and five primary regions of whole TMJ discs were captured using a 10× objective magnification for quantitative analysis. Live/dead quantification of 3.5 mm thick specimens was performed within the middle layer image (with a thickness of 1.26 mm) to avoid the count of dead cells on both surfaces associated with manual sectioning. In the context of sagittal sections in each region of the whole meniscus, images were acquired, and cell viability was quantified for the inner, middle, and outer layers. Images of sagittal sections in each region of the TMJ disc were acquired and used for viability quantification. Live/dead quantification was performed using software. Cell viability was defined as the proportion between the count of viable cells and the total cell count (comprising both live and dead cells).

[5] = alamarBlue metabolic activity of meniscal specimens; format: cell-based, Yorkshire pigs; details: 3.5 mm/SF: 3.5 mm specimens slow-frozen in Me2SO (10% v/v), normalized to specimen before treatment
Protocol: (§2) Following the completion of the warming and unloading steps, all tissues were subjected to recovery in DMEM supplemented with 1% P/S (e.g., DMEM/P/S) for one hour within a 37° C. incubator. Subsequently, the alamarBlue assay was conducted to assess the metabolic activity of tissues. This assay employs a water soluble fluorometric viability indicator, relying on the detection of metabolic activity. […] In the case of each meniscal specimen and each TMJ disc, evaluations were carried out both before and after different preservation treatments. For the whole meniscus, each fresh, slow-frozen, or vitrified sample underwent manual sectioning into sagittal sections, each measuring 1-2 mm in thickness, spanning from anterior to posterior horn. Within each region, a minimum of three sections were obtained.
(§3) Either each individual specimen or each section of the whole meniscus was incubated in 1 ml of DMEM/P/S and 100 μl alamarBlue reagent. This process was carried out under standard cell culture conditions for 3 hours. In contrast, each whole TMJ disc was incubated in 5.4 ml of DMEM/P/S and 600 μl alamarBlue reagent under standard cell culture conditions for 4 hours. Subsequently, fluorescence measurements were conducted in duplicate using a multimode microplate reader at an excitation wavelength of 544 nm and an emission wavelength of 590 nm. Following assessment, each sample was rinsed with DMEM/P/S for 30 mins to remove the alamarBlue reagent prior to proceeding with subsequent measurements. The time-course viability from day 0 to day 4 for each sample was assessed. In the case of meniscal specimens and whole TMJ discs, the results (expressed in relative fluorescence unit, RFU) of the slow-frozen and vitrified groups were normalized to the measurements taken from their respective fresh samples before any preservation treatments were applied. For the measurements of the whole meniscus, the results (expressed as RUF/mg of dry weight) from the slow-frozen and vitrified menisci were normalized to the corresponding values of fresh menisci within the same batch. Dry weight values of samples were measured using an analytical balance after being placed in a 60° C. oven over 48 hours subsequent to the completion of the time-course alamarBlue assay.

[6] = articular cartilage of calves, 22° C.; 3.1M Me2SO, 3.1M PG, 2.2M formamide; ref [4]; cited from earlier work
[7] = test system: whole menisci; experiment: alamarBlue metabolic activity of whole menisci; format: cell-based, Yorkshire pigs
Protocol: as §2, §3

[8] = test system: whole TMJ discs; experiment: alamarBlue metabolic activity of whole TMJ discs; format: cell-based, Yorkshire pigs; details: Slow-frozen (Me2SO 10% v/v)
Protocol: as §2, §3

[9] = test system: whole menisci; experiment: Fluorescence live/dead viability of whole menisci; format: cell-based, Yorkshire pigs; details: for Viability (%): whole menisci, SF (slow-frozen in Me2SO 10% v/v)
Protocol: as §1

For `C[S+](C)[O-]` [Me2SO, dimethyl sulfoxide], the “D (× 10^−10 m^2/s)” value ([1]; 4° C.) is given as 2.4 × 10^−10 m^2/s, the “D (× 10^−10 m^2/s)” value ([1]; 22° C.) is given as 3.0 × 10^−10 m^2/s and the “D (× 10^−10 m^2/s)” value ([1]; 37° C.) is given as 4.5 × 10^−10 m^2/s. The “D (× 10^−10 m^2/s)” value [2] was 2.4 × 10^−10 m^2/s, the “D (× 10^−10 m^2/s)” value ([3]; 1.4M, 4° C.) was 6.1 × 10^−10 m^2/s and the “D (× 10^−10 m^2/s)” value ([3]; 1.4M, 27° C.) was 14.4 × 10^−10 m^2/s. The “D (× 10^−10 m^2/s)” value ([3]; 14M, 4° C.) was 3.1 × 10^−10 m^2/s, the “D (× 10^−10 m^2/s)” value ([3]; 14M, 27° C.) was 6.8 × 10^−10 m^2/s and the “Viability (%)” value ([4]; Anterior) was 37.4 ± 2.7%. The “Viability (%)” value ([4]; Central) was 40.1 ± 4.2%, the “Viability (%)” value ([4]; Lateral) was 39.0 ± 2.7% and the “Viability (%)” value ([4]; Medial) was 38.3 ± 3.5%. The “Viability (%)” value ([4]; Posterior) was 37.1 ± 2.2%, the viability ([4]; slow-frozen samples (Me2SO 10% v/v)) was “less than 40%” and the “Metabolic activity, Viability (%)” value ([5]; Day 0 post-warming) was 47.0 ± 16.4%. The “Metabolic activity, Viability (%)” value ([5]; Day 1) was 43.0 ± 21.0%, the “Metabolic activity, Viability (%)” value ([5]; Day 2) was 39.0 ± 19.8% and the “Metabolic activity, Viability (%)” value ([5]; Day 3) was 39.5 ± 16.3%. For the same compound, the “Metabolic activity, Viability (%)” value ([5]; Day 4) was 52.6 ± 14.5%, the “D (× 10^−10 m^2/s)” value [6] was 4.63 ± 0.85 × 10^−10 m^2/s and the “Metabolic activity, Viability (%)” value ([7]; Anterior: SF (slow-frozen in Me2SO 10% v/v), Day 0 post-warming, normalized to fresh menisci day 0) was 32.9 ± 11.1%. For the same compound, the “Metabolic activity, Viability (%)” value ([7]; Anterior: SF (slow-frozen in Me2SO 10% v/v), Day 1, normalized to fresh menisci day 0) was 39.7 ± 10.1%, the “Metabolic activity, Viability (%)” value ([7]; Anterior: SF (slow-frozen in Me2SO 10% v/v), Day 2, normalized to fresh menisci day 0) was 31.4 ± 7.8% and the “Metabolic activity, Viability (%)” value ([7]; Anterior: SF (slow-frozen in Me2SO 10% v/v), Day 3, normalized to fresh menisci day 0) was 34.0 ± 6.9%. The “Metabolic activity, Viability (%)” value ([7]; Anterior: SF (slow-frozen in Me2SO 10% v/v), Day 4, normalized to fresh menisci day 0) was 36.7 ± 7.5%, the “Metabolic activity, Viability (%)” value ([7]; Central: SF (slow-frozen in Me2SO 10% v/v), Day 0 post-warming, normalized to fresh menisci day 0) was 43.1 ± 13.8% and the “Metabolic activity, Viability (%)” value ([7]; Central: SF (slow-frozen in Me2SO 10% v/v), Day 1, normalized to fresh menisci day 0) was 55.4 ± 16.8%. For the same compound, the “Metabolic activity, Viability (%)” value ([7]; Central: SF (slow-frozen in Me2SO 10% v/v), Day 2, normalized to fresh menisci day 0) was 35.1 ± 11.4%, the “Metabolic activity, Viability (%)” value ([7]; Central: SF (slow-frozen in Me2SO 10% v/v), Day 3, normalized to fresh menisci day 0) was 37.3 ± 9.6% and the “Metabolic activity, Viability (%)” value ([7]; Central: SF (slow-frozen in Me2SO 10% v/v), Day 4, normalized to fresh menisci day 0) was 35.3 ± 11.4%. The “Metabolic activity, Viability (%)” value ([7]; Posterior: SF (slow-frozen in Me2SO 10% v/v), Day 0 post-warming, normalized to fresh menisci day 0) was 38.0 ± 9.3%, the “Metabolic activity, Viability (%)” value ([7]; Posterior: SF (slow-frozen in Me2SO 10% v/v), Day 1, normalized to fresh menisci day 0) was 47.1 ± 7.2% and the “Metabolic activity, Viability (%)” value ([7]; Posterior: SF (slow-frozen in Me2SO 10% v/v), Day 2, normalized to fresh menisci day 0) was 34.9 ± 7.3%. The “Metabolic activity, Viability (%)” value ([7]; Posterior: SF (slow-frozen in Me2SO 10% v/v), Day 3, normalized to fresh menisci day 0) was 42.4 ± 7.4%, the “Metabolic activity, Viability (%)” value ([7]; Posterior: SF (slow-frozen in Me2SO 10% v/v), Day 4, normalized to fresh menisci day 0) was 45.7 ± 13.5% and the “Metabolic activity, Viability (%)” value ([8]; Day 0 post-warming, relative to respective fresh values) was 32.0 ± 0.8%. The “Metabolic activity, Viability (%)” value ([8]; Day 1, relative to respective fresh values) was 33.3 ± 0.5%, the “Metabolic activity, Viability (%)” value ([8]; Day 2, relative to respective fresh values) was 28.9 ± 0.5% and the “Metabolic activity, Viability (%)” value ([8]; Day 3, relative to respective fresh values) was 29.1 ± 1.7%. The “Metabolic activity, Viability (%)” value ([8]; Day 4, relative to respective fresh values) was 28.0 ± 0.6%, the “viability in whole menisci, average” value ([9]; slow freezing (Me2SO 10% v/v)) was roughly 21.6% and the “Viability (%)” value ([9]; Anterior region) was 19.5 ± 9.6%. The “Viability (%)” value ([9]; Central region) was 23.7 ± 6.4%, the “Viability (%)” value ([9]; Inner layer of sagittal sections) was 20.3 ± 13.8% and the “Viability (%)” value ([9]; Middle layer of sagittal sections) was 20.8 ± 8.9%. For the same compound, the “Viability (%)” value ([9]; Outer layer of sagittal sections) was 24.6 ± 16.9% and the “Viability (%)” value ([9]; Posterior region) was 21.4 ± 18.2%.
In the case of `CC(O)CO` (stereo not shown) [PG, propylene glycol], the “D (× 10^−10 m^2/s)” value ([1]; 4° C.) is given as 0.9 × 10^−10 m^2/s, the “D (× 10^−10 m^2/s)” value ([1]; 22° C.) is given as 1.6 × 10^−10 m^2/s and the “D (× 10^−10 m^2/s)” value ([1]; 37° C.) is given as 2.2 × 10^−10 m^2/s. For the same compound, the “D (× 10^−10 m^2/s)” value [6] was 3.47 ± 0.67 × 10^−10 m^2/s.
For `NC=O` [formamide], the “D (× 10^−10 m^2/s)” value [6] is listed as 6.67 ± 0.70 × 10^−10 m^2/s.
